Assay results published in PMC10601436 (ACS Omega, 2023).
Peptide text beside a SMILES is read from it.

Target: hDPP-IV (Homo sapiens, UniProt P27487)
Test: DPP-IV inhibitory assay
Type: biochemical

hDPP-IV, sequence (P27487 whole entry): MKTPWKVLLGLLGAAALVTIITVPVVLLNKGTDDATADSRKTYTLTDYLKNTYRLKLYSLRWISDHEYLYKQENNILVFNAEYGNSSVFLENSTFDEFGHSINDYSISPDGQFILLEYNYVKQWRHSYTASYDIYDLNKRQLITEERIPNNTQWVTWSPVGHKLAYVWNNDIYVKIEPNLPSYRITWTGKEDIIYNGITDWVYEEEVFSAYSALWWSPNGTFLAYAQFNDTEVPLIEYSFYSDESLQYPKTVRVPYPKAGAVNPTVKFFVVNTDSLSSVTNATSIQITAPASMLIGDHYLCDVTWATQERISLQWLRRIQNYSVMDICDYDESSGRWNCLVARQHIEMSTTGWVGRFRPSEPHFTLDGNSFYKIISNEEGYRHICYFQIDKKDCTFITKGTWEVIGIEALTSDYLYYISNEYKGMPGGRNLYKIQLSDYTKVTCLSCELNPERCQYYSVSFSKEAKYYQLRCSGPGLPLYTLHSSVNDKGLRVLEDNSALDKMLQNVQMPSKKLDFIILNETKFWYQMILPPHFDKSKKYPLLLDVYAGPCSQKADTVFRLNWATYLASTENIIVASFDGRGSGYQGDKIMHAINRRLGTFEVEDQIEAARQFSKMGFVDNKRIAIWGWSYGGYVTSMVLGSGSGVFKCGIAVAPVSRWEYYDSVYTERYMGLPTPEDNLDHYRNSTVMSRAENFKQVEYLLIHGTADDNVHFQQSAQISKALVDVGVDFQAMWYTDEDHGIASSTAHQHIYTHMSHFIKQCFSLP

Row | IC50 [µM] | Compound
1 | 441 | C[C@H](NC(=O)[C@@H](N)Cc1c[nH]c2ccccc12)C(=O)N1CCC[C@H]1C(=O)O [WAP] (H-Trp-Ala-Pro-OH)
2 | 283 | C[C@H](NC(=O)[C@@H](N)Cc1c[nH]c2ccccc12)C(=O)N[C@@H](CS)C(=O)O [WAC] (H-Trp-Ala-Cys-OH)
3 | 315 | N[C@@H](Cc1c[nH]c2ccccc12)C(=O)N1CCC[C@H]1C(=O)N[C@@H](Cc1c[nH]cn1)C(=O)O [WPH] (H-Trp-Pro-His-OH)
4 | 541 | CC(C)[C@H](NC(=O)[C@H](CCCNC(=N)N)NC(=O)[C@@H](N)Cc1c[nH]c2ccccc12)C(=O)O [WRV] (H-Trp-Arg-Val-OH)
5 | 303 | N[C@@H](Cc1c[nH]c2ccccc12)C(=O)N1CCC[C@H]1C(=O)N1CCC[C@H]1C(=O)O [WPP] (H-Trp-Pro-Pro-OH)
6 | 239 | CC(C)[C@H](NC(=O)[C@@H](N)Cc1c[nH]c2ccccc12)C(=O)N[C@@H](Cc1c[nH]c2ccccc12)C(=O)O [WVW] (H-Trp-Val-Trp-OH)
7 | 275 | CC(C)[C@H](NC(=O)[C@@H](NC(=O)[C@@H](N)Cc1c[nH]c2ccccc12)C(C)C)C(=O)O [WVV] (H-Trp-Val-Val-OH)
8 | 209 | N=C(N)NCCC[C@H](NC(=O)[C@@H]1CCCN1C(=O)[C@@H](N)Cc1c[nH]c2ccccc12)C(=O)O [WPR] (H-Trp-Pro-Arg-OH)
9 | 296 | C[C@H](NC(=O)[C@@H](N)Cc1c[nH]c2ccccc12)C(=O)N[C@H](C(=O)O)[C@@H](C)O [WAT] (H-Trp-Ala-Thr-OH)
10 | 352 | C[C@H](NC(=O)[C@@H](N)Cc1c[nH]c2ccccc12)C(=O)NCC(=O)O [WAG] (H-Trp-Ala-Gly-OH)
11 | 462 | C[C@H](NC(=O)[C@@H](N)Cc1c[nH]c2ccccc12)C(=O)N[C@@H](CCC(=O)O)C(=O)O [WAE] (H-Trp-Ala-Glu-OH)
12 | 373 | CC(C)[C@H](NC(=O)[C@@H](N)Cc1c[nH]c2ccccc12)C(=O)N[C@@H](CC(N)=O)C(=O)O [WVN] (H-Trp-Val-Asn-OH)
13 | 556 | C[C@@H](O)[C@H](NC(=O)[C@H](CCCNC(=N)N)NC(=O)[C@@H](N)Cc1c[nH]c2ccccc12)C(=O)O [WRT] (H-Trp-Arg-Thr-OH)
14 | 193 | CC(C)[C@H](NC(=O)[C@@H](N)Cc1c[nH]c2ccccc12)C(=O)N[C@@H](CCC(=O)O)C(=O)O [WVE] (H-Trp-Val-Glu-OH)
15 | 435 | C[C@@H](O)[C@H](NC(=O)[C@@H]1CCCN1C(=O)[C@@H](N)Cc1c[nH]c2ccccc12)C(=O)O [WPT] (H-Trp-Pro-Thr-OH)
16 | 535 | C[C@H](NC(=O)[C@H](CCCNC(=N)N)NC(=O)[C@@H](N)Cc1c[nH]c2ccccc12)C(=O)O [WRA] (H-Trp-Arg-Ala-OH)
17 | 330 | CC[C@H](C)[C@H](NC(=O)[C@H](CCCNC(=N)N)NC(=O)[C@@H](N)Cc1c[nH]c2ccccc12)C(=O)O [WRI] (H-Trp-Arg-Ile-OH)
18 | 341 | CC(C)[C@H](NC(=O)[C@@H](N)Cc1c[nH]c2ccccc12)C(=O)NCC(=O)O [WVG] (H-Trp-Val-Gly-OH)
19 | 275 | C[C@H](NC(=O)[C@H](C)NC(=O)[C@@H](N)Cc1c[nH]c2ccccc12)C(=O)O [WAA] (H-Trp-Ala-Ala-OH)
20 | 199 | CC[C@H](C)[C@H](NC(=O)[C@H](C)NC(=O)[C@@H](N)Cc1c[nH]c2ccccc12)C(=O)O [WAI] (H-Trp-Ala-Ile-OH)
21 | 257 | N=C(N)NCCC[C@H](NC(=O)[C@@H](N)Cc1c[nH]c2ccccc12)C(=O)N[C@@H](Cc1ccccc1)C(=O)O [WRF] (H-Trp-Arg-Phe-OH)
22 | 330 | CSCC[C@H](NC(=O)[C@H](C)NC(=O)[C@@H](N)Cc1c[nH]c2ccccc12)C(=O)O [WAM] (H-Trp-Ala-Met-OH)
23 | 588 | N[C@@H](Cc1c[nH]c2ccccc12)C(=O)N1CCC[C@H]1C(=O)N[C@@H](CO)C(=O)O [WPS] (H-Trp-Pro-Ser-OH)
24 | 481 | N[C@@H](Cc1c[nH]c2ccccc12)C(=O)N1CCC[C@H]1C(=O)N[C@@H](CC(=O)O)C(=O)O [WPD] (H-Trp-Pro-Asp-OH)
25 | 402 | CC(C)[C@H](NC(=O)[C@@H](N)Cc1c[nH]c2ccccc12)C(=O)N1CCC[C@H]1C(=O)O [WVP] (H-Trp-Val-Pro-OH)

Row | IC50 [µM] | Compound
26 | 160 | N=C(N)NCCC[C@H](NC(=O)[C@@H](N)Cc1c[nH]c2ccccc12)C(=O)N[C@@H](CCC(=O)O)C(=O)O [WRE] (H-Trp-Arg-Glu-OH)
27 | 331 | CC(C)[C@H](NC(=O)[C@@H](N)Cc1c[nH]c2ccccc12)C(=O)N[C@@H](CCCCN)C(=O)O [WVK] (H-Trp-Val-Lys-OH)
28 | 153 | C[C@H](NC(=O)[C@@H](N)Cc1c[nH]c2ccccc12)C(=O)N[C@@H](Cc1ccccc1)C(=O)O [WAF] (H-Trp-Ala-Phe-OH)
29 | 219 | CSCC[C@H](NC(=O)[C@@H]1CCCN1C(=O)[C@@H](N)Cc1c[nH]c2ccccc12)C(=O)O [WPM] (H-Trp-Pro-Met-OH)
30 | 265 | N=C(N)NCCC[C@H](NC(=O)[C@@H](N)Cc1c[nH]c2ccccc12)C(=O)N[C@@H](CO)C(=O)O [WRS] (H-Trp-Arg-Ser-OH)
31 | 302 | C[C@H](NC(=O)[C@@H](N)Cc1c[nH]c2ccccc12)C(=O)N[C@@H](CC(N)=O)C(=O)O [WAN] (H-Trp-Ala-Asn-OH)
32 | 341 | CC(C)[C@H](NC(=O)[C@@H](N)Cc1c[nH]c2ccccc12)C(=O)N[C@@H](C)C(=O)O [WVA] (H-Trp-Val-Ala-OH)
33 | 343 | CC(C)[C@H](NC(=O)[C@@H](N)Cc1c[nH]c2ccccc12)C(=O)N[C@@H](CC(=O)O)C(=O)O [WVD] (H-Trp-Val-Asp-OH)
34 | 270 | N=C(N)NCCC[C@H](NC(=O)[C@@H](N)Cc1c[nH]c2ccccc12)C(=O)NCC(=O)O [WRG] (H-Trp-Arg-Gly-OH)
35 | 104 | C[C@H](NC(=O)[C@@H](N)Cc1c[nH]c2ccccc12)C(=O)N[C@@H](Cc1c[nH]c2ccccc12)C(=O)O [WAW] (H-Trp-Ala-Trp-OH)
36 | 665 | C[C@H](NC(=O)[C@@H](N)Cc1c[nH]c2ccccc12)C(=O)N[C@@H](CCCNC(=N)N)C(=O)O [WAR] (H-Trp-Ala-Arg-OH)
37 | 286 | N[C@@H](Cc1c[nH]c2ccccc12)C(=O)N1CCC[C@H]1C(=O)N[C@@H](Cc1ccccc1)C(=O)O [WPF] (H-Trp-Pro-Phe-OH)
38 | 117 | C[C@H](NC(=O)[C@@H](N)Cc1c[nH]c2ccccc12)C(=O)N[C@@H](Cc1ccc(O)cc1)C(=O)O [WAY] (H-Trp-Ala-Tyr-OH)
39 | 511 | CC(C)[C@H](NC(=O)[C@@H]1CCCN1C(=O)[C@@H](N)Cc1c[nH]c2ccccc12)C(=O)O [WPV] (H-Trp-Pro-Val-OH)
40 | 188 | CC(C)[C@H](NC(=O)[C@@H](N)Cc1c[nH]c2ccccc12)C(=O)N[C@@H](Cc1ccccc1)C(=O)O [WVF] (H-Trp-Val-Phe-OH)
41 | 206 | C[C@H](NC(=O)[C@@H]1CCCN1C(=O)[C@@H](N)Cc1c[nH]c2ccccc12)C(=O)O [WPA] (H-Trp-Pro-Ala-OH)
42 | 135 | N[C@@H](Cc1c[nH]c2ccccc12)C(=O)N1CCC[C@H]1C(=O)NCC(=O)O [WPG] (H-Trp-Pro-Gly-OH)
43 | 603 | N=C(N)NCCC[C@H](NC(=O)[C@@H](N)Cc1c[nH]c2ccccc12)C(=O)N[C@@H](Cc1c[nH]c2ccccc12)C(=O)O [WRW] (H-Trp-Arg-Trp-OH)
44 | 353 | N[C@@H](Cc1c[nH]c2ccccc12)C(=O)N1CCC[C@H]1C(=O)N[C@@H](CCC(=O)O)C(=O)O [WPE] (H-Trp-Pro-Glu-OH)
45 | 250 | CC(C)[C@H](NC(=O)[C@H](C)NC(=O)[C@@H](N)Cc1c[nH]c2ccccc12)C(=O)O [WAV] (H-Trp-Ala-Val-OH)
46 | 190 | C[C@H](NC(=O)[C@@H](N)Cc1c[nH]c2ccccc12)C(=O)N[C@@H](Cc1c[nH]cn1)C(=O)O [WAH] (H-Trp-Ala-His-OH)
47 | 232 | CC(C)[C@H](NC(=O)[C@@H](N)Cc1c[nH]c2ccccc12)C(=O)N[C@@H](CS)C(=O)O [WVC] (H-Trp-Val-Cys-OH)
48 | 260 | CC(C)C[C@H](NC(=O)[C@H](C)NC(=O)[C@@H](N)Cc1c[nH]c2ccccc12)C(=O)O [WAL] (H-Trp-Ala-Leu-OH)
49 | 289 | C[C@H](NC(=O)[C@@H](N)Cc1c[nH]c2ccccc12)C(=O)N[C@@H](CCC(N)=O)C(=O)O [WAQ] (H-Trp-Ala-Gln-OH)
50 | 433 | C[C@H](NC(=O)[C@@H](N)Cc1c[nH]c2ccccc12)C(=O)N[C@@H](CC(=O)O)C(=O)O [WAD] (H-Trp-Ala-Asp-OH)

Row | Compound | IC50 [µM]
51 | CC(C)[C@H](N)C(=O)N1CCC[C@H]1C(=O)N[C@H](C(=O)N1CCC[C@H]1C(=O)N[C@@H](CS)C(=O)O)C(C)C [VPVPC] (H-VPVPC-OH) | 54.8
